In article PMC8550792, “Evolution of kinase polypharmacology across HSP90 drug discovery” (Cell Chemical Biology, 2021):

Legend:
Assay in all cases: biochemical
Type in all cases: biochemical
[1] = biological target: T1, 382 unique human kinases (Homo sapiens, UniProt Q9H3Y6); details: SRMS, compound at 10 uM, duplicate values; for remaining activity at 10 µM: read-out: % Enzyme Activity (relative to DMSO controls)
T1 construct: purchased Reaction Biology (HotSpot contract assay)

[2] = biological target: T2, 382 unique human kinases (Homo sapiens, UniProt P53355); details: kinase DAPK1, compound 10 uM; for remaining activity at 10 µM: read-out: % Enzyme Activity (relative to DMSO controls)
T2 construct: purchased Reaction Biology (HotSpot contract assay)
T2 sequence (P53355 whole entry): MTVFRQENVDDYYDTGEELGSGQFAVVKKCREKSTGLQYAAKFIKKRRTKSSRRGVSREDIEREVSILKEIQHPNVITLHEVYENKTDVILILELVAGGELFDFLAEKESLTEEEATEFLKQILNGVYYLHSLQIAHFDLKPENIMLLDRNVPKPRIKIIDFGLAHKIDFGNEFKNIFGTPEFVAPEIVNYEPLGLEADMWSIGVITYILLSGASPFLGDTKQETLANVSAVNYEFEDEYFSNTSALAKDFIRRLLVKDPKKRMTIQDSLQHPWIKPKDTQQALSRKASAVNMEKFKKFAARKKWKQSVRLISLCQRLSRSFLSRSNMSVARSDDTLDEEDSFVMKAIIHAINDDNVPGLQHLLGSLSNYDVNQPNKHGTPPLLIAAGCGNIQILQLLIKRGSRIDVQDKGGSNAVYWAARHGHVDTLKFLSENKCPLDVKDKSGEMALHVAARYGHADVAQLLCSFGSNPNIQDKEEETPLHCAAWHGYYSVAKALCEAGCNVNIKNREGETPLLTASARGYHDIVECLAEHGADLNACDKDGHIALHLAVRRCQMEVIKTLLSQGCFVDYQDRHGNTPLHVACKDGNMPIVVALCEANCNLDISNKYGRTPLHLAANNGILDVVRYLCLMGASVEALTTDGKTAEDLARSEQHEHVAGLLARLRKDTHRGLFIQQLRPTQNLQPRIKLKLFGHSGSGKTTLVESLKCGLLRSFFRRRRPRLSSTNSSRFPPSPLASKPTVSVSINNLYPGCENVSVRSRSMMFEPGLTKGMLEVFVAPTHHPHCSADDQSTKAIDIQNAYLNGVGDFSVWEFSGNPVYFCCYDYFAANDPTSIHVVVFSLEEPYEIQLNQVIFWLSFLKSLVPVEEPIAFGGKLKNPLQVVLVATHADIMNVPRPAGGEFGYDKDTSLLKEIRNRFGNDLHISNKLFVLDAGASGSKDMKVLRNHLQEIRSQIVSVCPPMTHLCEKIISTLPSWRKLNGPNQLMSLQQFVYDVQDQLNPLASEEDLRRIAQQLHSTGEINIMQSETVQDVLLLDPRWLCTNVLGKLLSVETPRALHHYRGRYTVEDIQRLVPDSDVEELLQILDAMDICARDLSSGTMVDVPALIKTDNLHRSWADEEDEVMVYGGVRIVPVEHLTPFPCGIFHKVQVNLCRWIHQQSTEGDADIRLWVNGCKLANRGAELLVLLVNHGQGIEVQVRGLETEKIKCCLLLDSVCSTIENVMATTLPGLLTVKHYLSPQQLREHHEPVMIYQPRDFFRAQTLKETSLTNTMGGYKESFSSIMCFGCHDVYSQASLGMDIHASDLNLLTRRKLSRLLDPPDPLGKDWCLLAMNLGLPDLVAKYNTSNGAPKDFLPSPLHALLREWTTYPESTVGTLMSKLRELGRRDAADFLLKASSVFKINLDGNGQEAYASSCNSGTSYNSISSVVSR

[3] = biological target: T3, 382 unique human kinases (Homo sapiens, UniProt Q9HBY8); details: kinase SGK2, compound 10 uM; for remaining activity at 10 µM: read-out: % Enzyme Activity (relative to DMSO controls)
T3 construct: purchased Reaction Biology (HotSpot contract assay)
T3 sequence (Q9HBY8 1-367): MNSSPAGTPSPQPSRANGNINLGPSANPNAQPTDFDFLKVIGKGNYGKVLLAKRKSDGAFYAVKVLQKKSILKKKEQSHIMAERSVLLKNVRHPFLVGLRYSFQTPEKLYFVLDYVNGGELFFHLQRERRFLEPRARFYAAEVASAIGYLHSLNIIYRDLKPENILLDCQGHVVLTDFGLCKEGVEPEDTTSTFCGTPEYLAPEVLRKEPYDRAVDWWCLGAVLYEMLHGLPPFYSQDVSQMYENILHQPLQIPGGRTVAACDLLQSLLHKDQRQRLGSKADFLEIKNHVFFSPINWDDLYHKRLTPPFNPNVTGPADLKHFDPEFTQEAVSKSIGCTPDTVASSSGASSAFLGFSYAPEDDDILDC

[4] = biological target: T4, 382 unique human kinases (Homo sapiens, UniProt P08581, F1200I); details: kinase c-MET (F1200I), compound 10 uM; for remaining activity at 10 µM: read-out: % Enzyme Activity (relative to DMSO controls)
T4 construct: purchased Reaction Biology (HotSpot contract assay)

[5] = biological target: T5, 382 unique human kinases (Homo sapiens, UniProt P52564); details: MKK6, 10 uM; for remaining activity at 10 µM: read-out: % Enzyme Activity (relative to DMSO controls)
T5 construct: purchased Reaction Biology (HotSpot contract assay)
T5 sequence (P52564 1-334): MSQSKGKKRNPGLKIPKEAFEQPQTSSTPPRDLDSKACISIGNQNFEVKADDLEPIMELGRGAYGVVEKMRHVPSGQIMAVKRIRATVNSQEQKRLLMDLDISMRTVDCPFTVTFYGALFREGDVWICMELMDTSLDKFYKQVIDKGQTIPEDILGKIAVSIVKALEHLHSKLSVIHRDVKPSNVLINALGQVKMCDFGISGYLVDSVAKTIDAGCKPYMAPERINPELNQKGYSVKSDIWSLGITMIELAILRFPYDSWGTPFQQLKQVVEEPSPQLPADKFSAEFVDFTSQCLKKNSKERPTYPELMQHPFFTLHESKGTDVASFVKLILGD

[6] = biological target: T6, 382 unique human kinases (Homo sapiens, UniProt P00533, G719S); details: EGFR (G719S), 10 uM; for remaining activity at 10 µM: read-out: % Enzyme Activity (relative to DMSO controls)
T6 construct: purchased Reaction Biology (HotSpot contract assay)

[7] = biological target: T7, 382 unique human kinases (Homo sapiens, UniProt P36896); details: ALK4/ACVR1B, 10 uM; for remaining activity at 10 µM: read-out: % Enzyme Activity (relative to DMSO controls)
T7 construct: purchased Reaction Biology (HotSpot contract assay)
T7 sequence (P36896 24-505): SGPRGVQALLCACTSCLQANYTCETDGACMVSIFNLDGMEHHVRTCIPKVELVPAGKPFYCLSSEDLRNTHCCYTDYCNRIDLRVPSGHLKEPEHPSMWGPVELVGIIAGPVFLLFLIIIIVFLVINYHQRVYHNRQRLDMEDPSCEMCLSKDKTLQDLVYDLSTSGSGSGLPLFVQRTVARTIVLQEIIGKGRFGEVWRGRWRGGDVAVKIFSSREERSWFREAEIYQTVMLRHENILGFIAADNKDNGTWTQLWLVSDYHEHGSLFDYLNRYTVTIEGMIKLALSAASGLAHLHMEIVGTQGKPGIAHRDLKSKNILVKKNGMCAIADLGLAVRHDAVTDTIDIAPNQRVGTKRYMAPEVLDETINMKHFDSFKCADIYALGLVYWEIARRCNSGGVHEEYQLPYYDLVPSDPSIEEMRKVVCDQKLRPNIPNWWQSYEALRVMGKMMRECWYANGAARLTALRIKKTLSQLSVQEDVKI

[8] = biological target: T8, 382 unique human kinases (Homo sapiens, UniProt Q9H2K8); details: TAOK3/JIK, 10 uM; for remaining activity at 10 µM: read-out: % Enzyme Activity (relative to DMSO controls)
T8 construct: purchased Reaction Biology (HotSpot contract assay)
T8 sequence (Q9H2K8 1-898): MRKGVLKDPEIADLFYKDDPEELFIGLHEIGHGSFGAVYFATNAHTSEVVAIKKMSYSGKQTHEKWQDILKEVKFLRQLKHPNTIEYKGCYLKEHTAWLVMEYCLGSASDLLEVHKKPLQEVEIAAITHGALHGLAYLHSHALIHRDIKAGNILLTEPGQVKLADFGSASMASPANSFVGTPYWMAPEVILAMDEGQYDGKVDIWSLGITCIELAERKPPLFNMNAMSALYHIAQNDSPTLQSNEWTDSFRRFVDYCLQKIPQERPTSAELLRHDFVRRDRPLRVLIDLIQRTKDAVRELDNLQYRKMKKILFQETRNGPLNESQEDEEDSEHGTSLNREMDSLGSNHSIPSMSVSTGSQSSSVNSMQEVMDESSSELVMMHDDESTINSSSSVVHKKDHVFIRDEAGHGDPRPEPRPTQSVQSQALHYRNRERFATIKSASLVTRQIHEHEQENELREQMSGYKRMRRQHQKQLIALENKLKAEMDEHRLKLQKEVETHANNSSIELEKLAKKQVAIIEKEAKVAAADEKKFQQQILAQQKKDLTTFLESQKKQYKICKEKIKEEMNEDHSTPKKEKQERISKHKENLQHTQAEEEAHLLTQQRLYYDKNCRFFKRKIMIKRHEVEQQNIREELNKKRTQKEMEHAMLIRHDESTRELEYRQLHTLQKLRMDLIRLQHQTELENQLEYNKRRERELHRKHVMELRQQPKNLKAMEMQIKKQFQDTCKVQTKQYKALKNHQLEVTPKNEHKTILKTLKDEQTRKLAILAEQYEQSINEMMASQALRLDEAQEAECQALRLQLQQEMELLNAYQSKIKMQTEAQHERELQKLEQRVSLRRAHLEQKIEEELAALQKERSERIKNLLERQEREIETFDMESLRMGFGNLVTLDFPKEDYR

[9] = biological target: T9, 382 unique human kinases (Homo sapiens, UniProt Q5S007, R1441C); details: LRRK2 (R1441C), [ATP] 50 µM, compound 10 uM; for remaining activity at 10 µM: read-out: % Enzyme Activity (relative to DMSO controls)
T9 construct: purchased Reaction Biology (HotSpot contract assay)

[10] = biological target: T10, 382 unique human kinases (Homo sapiens, UniProt P31751, E17K); details: AKT2 (E17K), 10 uM; for remaining activity at 10 µM: read-out: % Enzyme Activity (relative to DMSO controls)
T10 construct: purchased Reaction Biology (HotSpot contract assay)
T10 sequence (P31751 whole entry E17K): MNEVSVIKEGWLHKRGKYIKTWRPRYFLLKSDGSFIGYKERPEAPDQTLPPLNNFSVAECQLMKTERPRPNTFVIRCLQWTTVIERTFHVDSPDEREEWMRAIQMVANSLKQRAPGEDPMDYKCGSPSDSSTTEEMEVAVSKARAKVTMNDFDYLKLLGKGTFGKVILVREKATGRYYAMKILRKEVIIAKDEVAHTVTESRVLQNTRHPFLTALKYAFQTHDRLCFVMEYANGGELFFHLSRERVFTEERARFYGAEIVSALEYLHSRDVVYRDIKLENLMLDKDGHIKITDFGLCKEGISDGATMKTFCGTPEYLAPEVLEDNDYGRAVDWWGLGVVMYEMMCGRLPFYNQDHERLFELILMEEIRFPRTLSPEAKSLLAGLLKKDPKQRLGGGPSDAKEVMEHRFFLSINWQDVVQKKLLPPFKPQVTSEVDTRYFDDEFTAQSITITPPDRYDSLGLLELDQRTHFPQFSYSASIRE

[11] = biological target: T11, 382 unique human kinases (Homo sapiens, UniProt P04629); details: TRKA, [ATP] 100 µM, compound 10 uM; for remaining activity at 10 µM: read-out: % Enzyme Activity (relative to DMSO controls)
T11 construct: purchased Reaction Biology (HotSpot contract assay)
T11 sequence (P04629 33-796): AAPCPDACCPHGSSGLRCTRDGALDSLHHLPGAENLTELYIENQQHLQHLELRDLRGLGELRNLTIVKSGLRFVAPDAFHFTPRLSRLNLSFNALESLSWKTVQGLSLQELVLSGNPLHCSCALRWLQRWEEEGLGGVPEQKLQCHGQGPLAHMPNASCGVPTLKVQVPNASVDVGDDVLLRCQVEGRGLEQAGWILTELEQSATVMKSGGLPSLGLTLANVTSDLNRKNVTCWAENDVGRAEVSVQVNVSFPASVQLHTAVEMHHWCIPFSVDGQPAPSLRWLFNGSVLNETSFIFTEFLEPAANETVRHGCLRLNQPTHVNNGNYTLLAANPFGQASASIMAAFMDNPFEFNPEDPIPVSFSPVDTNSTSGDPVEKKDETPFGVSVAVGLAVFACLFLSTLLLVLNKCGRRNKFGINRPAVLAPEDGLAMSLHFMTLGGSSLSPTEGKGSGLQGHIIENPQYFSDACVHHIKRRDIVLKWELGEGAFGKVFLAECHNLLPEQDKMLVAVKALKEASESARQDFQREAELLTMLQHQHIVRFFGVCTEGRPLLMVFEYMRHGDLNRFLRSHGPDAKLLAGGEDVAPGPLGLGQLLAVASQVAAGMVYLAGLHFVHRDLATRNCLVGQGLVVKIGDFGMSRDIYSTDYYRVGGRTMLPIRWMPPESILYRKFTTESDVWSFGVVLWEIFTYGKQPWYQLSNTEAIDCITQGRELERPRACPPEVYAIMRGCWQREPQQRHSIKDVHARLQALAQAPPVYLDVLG

T1 sequence (Q9H3Y6 whole entry): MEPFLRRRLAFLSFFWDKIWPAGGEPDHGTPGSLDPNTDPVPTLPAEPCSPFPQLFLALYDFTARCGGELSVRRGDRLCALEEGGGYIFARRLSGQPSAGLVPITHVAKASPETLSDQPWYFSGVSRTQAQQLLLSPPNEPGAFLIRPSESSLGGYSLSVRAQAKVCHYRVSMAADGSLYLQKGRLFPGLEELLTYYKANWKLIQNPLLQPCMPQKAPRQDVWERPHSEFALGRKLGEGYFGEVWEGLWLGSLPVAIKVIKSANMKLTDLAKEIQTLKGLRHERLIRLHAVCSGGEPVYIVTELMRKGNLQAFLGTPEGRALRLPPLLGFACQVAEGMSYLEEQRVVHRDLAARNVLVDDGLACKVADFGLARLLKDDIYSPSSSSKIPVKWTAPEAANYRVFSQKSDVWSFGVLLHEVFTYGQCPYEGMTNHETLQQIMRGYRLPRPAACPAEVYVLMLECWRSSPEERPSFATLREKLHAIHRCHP

SMILES | remaining activity at 10 µM [1] [%] | remaining activity at 10 µM [2] [%] | remaining activity at 10 µM [3] [%] | remaining activity at 10 µM [4] [%] | remaining activity at 10 µM [5] [%] | remaining activity at 10 µM [6] [%] | remaining activity at 10 µM [7] [%] | remaining activity at 10 µM [8] [%] | remaining activity at 10 µM [9] [%] | remaining activity at 10 µM [10] [%] | remaining activity at 10 µM [11] [%] | also measured
CC(C)c1cc(-c2n[nH]c(=O)n2-c2ccc3c(ccn3C)c2)c(O)cc1O [Ganetespib (STA9090)] | 109 | 83.3 | 85.5 | 86.5 | 72.9 | – | – | – | – | – | – | –
CCNC(=O)c1noc(-c2cc(C(C)C)c(O)cc2O)c1-c1ccc(CN2CCOCC2)cc1 [Luminespib] | – | – | – | – | – | 99.4 | 95 | 100 | 88.8 | 98 | 101 | % Enzyme Activity (relative to DMSO controls) [6]: 98.84%; % Enzyme Activity (relative to DMSO controls) [7]: 94.12%; % Enzyme Activity (relative to DMSO controls) [8]: 98.33%; % Enzyme Activity (relative to DMSO controls) [9]: 88.51%; % Enzyme Activity (relative to DMSO controls) [10]: 96.63%; % Enzyme Activity (relative to DMSO controls) [11]: 101.35%
CCNC(=O)c1noc(-c2cc(C(C)C)c(O)cc2O)c1-c1ccc(CN2CCOCC2)cc1 [Luminespib (AUY-922)] | 111 | 83.5 | 110 | 100 | 100 | – | – | – | – | – | – | % Enzyme Activity (relative to DMSO controls) [1]: 110.03%; % Enzyme Activity (relative to DMSO controls) [2]: 82.81%; % Enzyme Activity (relative to DMSO controls) [3]: 108.05%; % Enzyme Activity (relative to DMSO controls) [4]: 100.14%; % Enzyme Activity (relative to DMSO controls) [5]: 98.81%
CC(C)c1cc(-c2n[nH]c(=O)n2-c2ccc3c(ccn3C)c2)c(O)cc1O [Ganetespib] | – | – | – | – | – | 99.7 | 111 | 126 | 50.7 | 108 | 52.8 | –
